In patent US10221168B1, “Small-compound enhancers for functional O-mannosylation of alpha-dystroglycan, and uses thereof” (priority 2015, dated 2019):

System: FOG of α-DG on the cell surfaces
Experiment: Cell-based HTS/HCS assay, IIH6 antibody as probe (EC1.5)
Settings: concentration of the compound required to enhance the FOG of α-DG by 50% over the controls; cell-based assays in vitro
Description: Protein glycosylation is a multiple-step process that requires a large number of proteins in the secretory pathway of the cells. Thus we chose cell-based assay because our goal is to identify enhancer the FOG of α-DG on the cell surfaces. The assay system is HTS/HCS friendly and can adapt to various cell lines including myotubes as well as various readout methods including AlphaScreen, fluorescence density and HCS/fluorescence imaging. The standard operation protocol (SOP) for adhesion cells is described below and the FIG. 1 illustrates the assay process using myoblasts as the controls and screening cells and the IIH6 antibody as the probe. Other adhesion cells such CHO (Chinese hamster ovary) cell line can be implemented into this assay by simply removing the differentiation step.
Cell cultures: All cells are cultured at 37° C., 5% CO2, in appropriate media (F-12 for epithelial cells and DMEM for myoblasts) supplement with 10-20% fetal calf serum (FCS) and 1% antibiotics. […] The cells will be detached with trypsin EDTA and suspended in the cell culture media. The cells will be counted and seeded into the multiple-well plates as desired. Myotubes formation: When the myoblasts reach confluence, change the growth media to differential media (DEME with 2% horse serum) and incubate for 4-5 days.
The cells were fixed, permeablized, and then blocked with 10% BSA in PBS for 1 hour. […] After washing the cells with PBS for 2 times, the DAPI was used to stain the cells for 15 mins and wash 3 times with PBS. The images were captured with an inverted Olympus fluorescent microscope. For small compound localization experiment, the cells are incubated with the biotin conjugated compounds and then the cells were washed and incubated with streptavidin-Dye and then images will be captured to see the location of the compound-target-protein.
H, EC1.5<5 μM; M, EC1.5-20 μM; L, EC1.5 20-50 μM; VL, EC1.5>50 μM.

SMILES	Activity (EC1.5)
CCC(c1nnnn1Cc1cccs1)N1CCN(c2nc3ccccc3s2)CC1 (centres unmarked) [Compound 6, 2-(4-(1-(1-(thiophen-2-ylmethyl)-1H-tetrazol-5-yl)propyl)piperazin-1-yl)benzothiazole]	M (EC1.5-20 μM)
CCC(c1nnnn1Cc1cccs1)N1CCN(c2nc3ccc([N+](=O)[O-])cc3s2)CC1 (centres unmarked) [Compound 10, 6-nitro-2-(4-(1-(1-(thiophen-2-ylmethyl)-1H-tetrazol-5-yl)propyl)piperazin-1-yl)benzothiazole]	VL (EC1.5>50 μM)
CCC(c1nnnn1Cc1cccs1)N1CCN(c2nc3ccccc3[nH]2)CC1 (centres unmarked) [Compound 9, 2-(4-(1-(1-(thiophen-2-ylmethyl)-1H-tetrazol-5-yl)propyl)piperazin-1-yl)-1H-benzimidazole]	L (EC1.5 20-50 μM)
CCC(c1nnnn1Cc1cccs1)N1CCN(c2nc3c(N)cccc3s2)CC1 (centres unmarked) [Compound 23, 4-aminn-2-(4-(1-(1-(thiophen-2-ylmethyl) 1H-tetrazol-5-yl)propyl)piperazin-1-yl)benzothiazole]	M (EC1.5-20 μM)
CCC(c1nnnn1Cc1cccs1)C1CCCN(c2nc3cc(N)cc(F)c3s2)CC1 (centres unmarked) [Compound 70, 5 amino-7-fluoro-2-(4-(1-(1-(thiophen-2-ylmethyl)-1H-tetrazol-5-yl)propyl)azepane-1-yl)benzothiazole]	H (EC1.5<5 μM)
CCC(c1nnnn1Cc1cccs1)N1CCN(c2nc3cccc(C(F)(F)F)c3s2)CC1 (centres unmarked) [Compound 26, 2-(4-(1-(1-(thiophen-2-ylmethyl)-1H-tetrazol-5-yl)propyl)piperazin-1-yl)-7-(trifluoramethyl)benzothiazole]	L (EC1.5 20-50 μM)
O=C(c1nnnn1Cc1cccs1)N1CCN(c2nc3cccc(F)c3s2)CC1 [Compound 33, (4-(7-fluorobenzothiazol-2-yl)piperazin-1-yl)(1-(thiophen-2-ylmethyl)-1H-tetrazol-5-yl)methanone]	L (EC1.5 20-50 μM)
CCC(c1nnnn1Cc1cccs1)N1CCN(c2nc3ccc(NC(=O)c4ccccc4C)cc3s2)CC1 (centres unmarked) [Compound 19, 2-methyl-N-(2-(4-(1-(1-(thiophen-2-ylmethyl)-1H-tetrazol-5-yl)propyl)piperazin-1-yl)benzothiazol-6-yl)benzamide]	VL (EC1.5>50 μM)
CCC(c1nnnn1Cc1cccs1)N1CCN(c2nc3ccc(NC(=O)c4ccccc4Cl)cc3s2)CC1 (centres unmarked) [Compound 18, 2-chloro-N-(2-(4-(1-(1-(thiophen-2-ylmethyl)-1H-tetrazol-5-yl)propyl)piperazin-1-yl)benzothiazol-6-yl)benzamide]	VL (EC1.5>50 μM)
CCC(c1nnnn1CCc1ccc(F)s1)N1CCN(c2nc3cc(N)cc(F)c3s2)C(C)C1 (centres unmarked) [Compound 60, 5-amino-7-fluoro-2-(4-(1-(1-(5-fluoro-thiophen-2-ylethyl)-1H-tetrazol-5-yl)propyl)-2-methyl-piperazin-1-yl)benzothiazole]	H (EC1.5<5 μM)
CCC(c1nnnn1Cc1ccco1)N1CCN(c2nc3ccccc3s2)CC1 (centres unmarked) [Compound 5, 2-(4-(1-(1-(furan-2-ylmethyl)-1H-tetrazol-5-yl)propyl)piperazin-1-yl)benzothiazole]	M (EC1.5-20 μM)
CCC(c1nnnn1Cc1cccs1)N1CCN(c2nc3ccc(OC)cc3s2)CC1 (centres unmarked) [Compound 14, 6-methoxy-2-(4-(1-(1-(thiophen-2-ylmethyl)-1H-tetrazol-5-yl)propyl)piperazin-1-yl)benzothiazole]	M (EC1.5-20 μM)
CCC(c1ccc(-c2nc3ccccc3s2)cc1)c1nnnn1Cc1cccs1 (centres unmarked) [Compound 40, 2-(4-(1-(1-(thiophen-2-ylmethyl)-1H-tetrazol-5-yl)propyl)phenyl)benzothiazole]	M (EC1.5-20 μM)
CCC(c1nnnn1Cc1cccs1)N1CCN(c2nc3ccc(-c4ccccc4)cc3s2)CC1 (centres unmarked) [Compound 17, 6-phenyl-2-(4-(1-(1-(thiophen-2-ylmethyl)-1H-tetrazol-5-yl)propyl)piperazin-1-yl)benzothiazole]	VL (EC1.5>50 μM)
CCC(c1nnnn1Cc1cccs1)N1CCC(c2nc3ccccc3s2)CC1 (centres unmarked) [Compound 8, 2-(1-(1-(1-(thiophen-2-ylmethyl)-1H-tetrazol-5-yl)propyl)piperidin-4-yl)benzothiazole]	M (EC1.5-20 μM)
CCC(c1nnnn1CCc1cccs1)N1CCN(c2nc3cc(N)c(N)cc3s2)CC1 (centres unmarked) [Compound 53, 5,6-diamino-2-(4-(1-(1-(thiophen-2-ylethyl)-1H-tetrazol-5-yl)propyl)piperazin-1-yl)benzothiazole]	H (EC1.5<5 μM)

SMILES	Activity (EC1.5)
CCC(c1nnnn1CCc1cccs1)N1CCN(C2Sc3c(F)cc(N)cc3N2C)CC1 (centres unmarked) [Compound 63, 5-amino-7-fluoro-3-methyl-2-(4-(1-(1-(thiophen-2-ylethyl)-1H-tetrazol-5-yl)propyl)piperazin-1-yl)benzothiazole]	H (EC1.5<5 μM)
CCC(c1nnnn1Cc1cccs1)N1CCN(c2nc3cc(N)c(N)cc3s2)CC1 (centres unmarked) [Compound 54, 5,6-diamino-2-(4-(1-(1-(thiophen-2-ylmethyl)-1H-tetrazol-5-yl)propyl)piperazin-1-yl)benzothiazole]	H (EC1.5<5 μM)
CCC(C(=S)NCc1cccs1)c1ccc(-c2nc3ccccc3s2)cc1 (centres unmarked) [Compound 39, 2-(4-(benzothiazol-2-yl)phenyl)-N-(thiophen-2-ylmethyl)butanethioamide]	M (EC1.5-20 μM)
CCC(c1nnnn1CCc1cccs1)N1CCN(c2nc3cccc(F)c3s2)CC1 (centres unmarked) [Compound 41, 7-fluoro-2-(4-(1-(1-(2-(thiophen-2-yl)ethyl)-1H-tetrazol-5-yl)propyl)piperazin-1-yl)benzothiazole]	L (EC1.5 20-50 μM)
CCC(c1nnnn1Cc1cccs1)C1CCN(c2nc3cc(N)cc(F)c3s2)C1 (centres unmarked) [Compound 69, 5-amino-7-fluoro-2-(4-(1-(1-(thiophen-2-ylmethyl)-1H-tetrazol-5-yl)propyl)pyrrolidine-1-yl)benzothiazole]	H (EC1.5<5 μM)
c1csc(Cn2nnnc2CN2CCN(c3nc4ccccc4s3)CC2)c1 [Compound 2, 2-(4-((1-(thiophen-2-ylmethyl)-1H-tetrazol-5-yl)methyl)piperazin-1-yl)benzothiazole]	M (EC1.5-20 μM)
CCC(c1nnnn1Cc1cccs1)N1CCN(c2nc3ccc(N)cc3s2)CC1 (centres unmarked) [Compound 11, 6-amino-2-(4-(1-(1-(thiophen-2-ylmethyl)-1H-tetrazol-5-yl)propyl)piperazin-1-yl)benzothiazole]	M (EC1.5-20 μM)
CCC(C(=O)NCc1cccs1)c1ccc(-c2nc3ccccc3s2)cc1 (centres unmarked) [Compound 38, 2-(4-(benzothiazol-2yl)phenyl)-N-(thiophen-2-ylmethyl)butanamide]	M (EC1.5-20 μM)
CCC(c1nnnn1Cc1cccs1)N1CCN(c2nc3c(F)cc(F)cc3s2)CC1 (centres unmarked) [Compound 44, 4,6-difluoro-2-(4-(1-(1-(thiophen-2-ylmethyl)-1H-tetrazol-5-yl)propyl)piperazin-1-yl)benzothiazole]	M (EC1.5-20 μM)
CCC(c1nnnn1Cc1cccs1)N1CCN(c2nc3cccc(O)c3s2)CC1 (centres unmarked) [Compound 37, 7-hydroxyl-2-(4-(1-(1-(thiophen-2-ylmethyl)-1H-tetrazol-5-yl)propyl)piperazin-1-yl)benzothiazole]	L (EC1.5 20-50 μM)
CCC(c1nnnn1Cc1cccs1)N1CCN(c2nc3ccc(N)c(F)c3s2)CC1 (centres unmarked) [Compound 49, 6-amino-7-fluoro-2-(4-(1-(1-(thiophen-2-ylmethyl)-1H-tetrazol-5-yl)propyl)piperazin-1-yl)benzothiazole]	H (EC1.5<5 μM)
CCC(c1nnnn1Cc1ccco1)N1CCC(c2nc3ccccc3s2)CC1 (centres unmarked) [Compound 4, 2-(1-(1-(1-(furan-2-ylmethyl)-1H-tetrazol-5-yl)propyl)piperidin-4-yl)benzothiazole]	M (EC1.5-20 μM)
CCC(c1nnnn1Cc1cccs1)N1CCN(c2nc3ccc(C)cc3s2)CC1 (centres unmarked) [Compound 16, 6-methyl-2-(4-(1-(1-(thiophen-2-ylmethyl)-1H-tetrazol-5-yl)propyl)piperazin-1-yl)benzothiazole]	L (EC1.5 20-50 μM)
CCC(c1nnnn1Cc1cccs1)N1CCN(c2nc3c(F)c(N)cc(F)c3s2)CC1 (centres unmarked) [Compound 48, 5-amino-4,7-difluoro-2-(4-(1-(1-(thiophen-2-ylmethyl)-1H-tetrazol-5-yl)propyl)piperazin-1-yl)benzothiazole]	H (EC1.5<5 μM)
CCC(c1nnnn1Cc1cccs1)N1CCN(c2nc3cccc(C(=O)O)c3s2)CC1 (centres unmarked) [Compound 36, 2-(4-(1-(1-(thiophen-2-ylmethyl)-1H-tetrazol-5-yl)propyl)piperazin-1-yl)benzothiazole-7-carboxylic acid]	L (EC1.5 20-50 μM)
CCC(c1nnnn1CCc1cccs1)N1CCN(c2nc3cc(N)cc(F)c3s2)C(N)C1 (centres unmarked) [Compound 66, 5-amino-7-fluoro-2-(4-(1-(1-(thiophen-2-ylethyl)-1H-tetrazol-5-yl)propyl)-2-amino-piperazin-1-yl)benzothiazole]	H (EC1.5<5 μM)
